Laboratory results from US20160263073A1, “MONOACYLGLYCEROLS FOR USE IN THE TREATMENT OF MALABSORPTION HAVING A MECHANICAL BASIS” (NESTEC S.A., priority 2013, published 2016).

How the values were obtained:
[1] = lipid maldigestion or malabsorption rat model (XENICAL-induced): EPA level in red blood cell lipids; assay type: in vivo; conditions: rats; for level of EPA incorporated in red blood cells: day 7, with XENICAL (ORLISTAT), FIG. 2
Procedure: The concept was tested in a lipid maldigestion or malabsorption rat model. The maldigestion or malabsorption condition was obtained using XENICAL® (ORLISTAT), a pancreatic and gastric lipases inhibitor (tetrahydrolipstatin; see FIG. 7). Rats were fed during 21 days with long-chain polyunsaturated fatty acid (LC-PUFA) supplements containing mainly eicosapentaenoic (EPA) acid. Fish oil was used as a source of triacylglycerols, and different EPA glycerides were evaluated. XENICAL® (ORLISTAT) was given at a level sufficient to decrease lipid absorption by 40%. A group receiving fish oil without XENICAL® (ORLISTAT) was used as a positive control. At different time intervals (D3, D7, […]), the fatty acid profiles of red blood cell and plasma lipids were determined. At the end of the experiment, the fatty acid profiles of different tissues were determined. The main objective was to follow the level of EPA in red blood cell and plasma lipids. The main comparison evaluated was the difference in EPA level between the group receiving EPA-containing sn-1(3) MAG in combination with XENICAL® (ORLISTAT) and the positive control group (fish oil+XENICAL® (ORLISTAT)). […] This comparison corroborates the validity of the model.

[2] = clinical study: sn-1(3) MAG versus fish oil (TAG) in delivering EPA under lipid maldigestion induced by XENICAL; assay type: in vivo, human
Procedure: This clinical study compared the efficacy of sn-1(3) MAG and fish oil (TAG) in delivering EPA in humans under lipid maldigestion conditions induced by XENICAL® (ORLISTAT). The comparison was tested in volunteers having a BMI of 37-40 kg/m^2 and treated with XENICAL® (ORLISTAT) to induce lipid maldigestion or not treated with XENICAL® (ORLISTAT). The primary objective was to assess accretion of EPA in erythrocytes over 21 days when consumed as fish oil (TAG) or sn-1(3) MAG. The secondary objectives were to assess accretion of EPA in plasma over 21 days and also to assess the pharmacokinetics of EPA after an acute dose either in the form of sn-1(3) MAG or TAG (AUC in chylomicrons over 10 hours postprandial).

SMILES	EPA incorporation in red blood cells ([1]; day 7, fish oil with XENICAL compared with fish oil without XENICAL)	incorporation of LC-PUFAs in tissue ([1]; conditions of lipid maldigestion or malabsorption)	level of EPA incorporated in red blood cells ([1]; compared with fish oil in combination with XENICAL, all P values lower than 0.05)	level of EPA incorporated in red blood cells ([1]; compared with the fish oil group without XENICAL)	chronic effect: accretion of EPA in erythrocytes after 21 days ([2]; humans, with XENICAL, in comparison to fish oil and XENICAL, p=0.0001, FIG. 5)	chronic effect: accretion of EPA in plasma after 21 days ([2]; humans, with XENICAL, relative to fish oil and XENICAL, p=0.0003, FIG. 6)	carrier for EPA ([2]; obese subjects treated with XENICAL, compared with fish oil (TAG))
CCCCCCCCCCC[C@@H](C[C@@H]1OC(=O)[C@H]1CCCCCC)OC(=O)[C@H](CC(C)C)NC=O [XENICAL® (ORLISTAT), tetrahydrolipstatin, reference compound]	decreases EPA incorporation in red blood cells						
CC/C=C\C/C=C\C/C=C\C/C=C\C/C=C\CCCC(=O)OCC(O)CO (stereo not shown) [sn-1(3) MAG, sn-1(3)-monoeicosapentaenoylglycerol]		improved	statistically higher	even higher than the fish oil group	statistically significant	statistically significant	better carrier for EPA than fish oil (TAG)
